≈ marks a conversion by molar mass, not a printed value.
Experiments:
[1] = Solubility (physico-chemical properties)
[2] = Toxicity in mice after intravenous administration; format: in vivo; details: intravenously 400 mg/kg
[3] = tested on: Proteus mirabilis SANK 70461; assay: MIC by agar dilution method, Mueller-Hinton agar; format: cell-based
Description: (§1) The minimal inhibitory concentrations (MIC) of mureidomycins E and F against various Gram-positive and Gram-negative bacteria were determined by the agar dilution method, using a Mueller-Hinton agar medium (produced by Difco).

[4] = tested on: Pseudomonas aeruginosa SANK 70579; assay: MIC by agar dilution method, Mueller-Hinton agar; format: cell-based
Description: as §1

[5] = tested on: Pseudomonas aeruginosa SANK 75175; assay: MIC by agar dilution method, Mueller-Hinton agar; format: cell-based
Description: as §1

[6] = tested on: Pseudomonas aeruginosa SANK 70970; assay: MIC by agar dilution method, Mueller-Hinton agar; format: cell-based
Description: as §1

[7] = tested on: Pseudomonas aeruginosa ATCC 13388; assay: MIC by agar dilution method, Mueller-Hinton agar; format: cell-based
Description: as §1

[8] = tested on: Staphylococcus aureus FDA 209P JC-1; assay: MIC by agar dilution method, Mueller-Hinton agar; format: cell-based
Description: as §1

[9] = tested on: Pseudomonas aeruginosa SANK 75775; assay: MIC by agar dilution method, Mueller-Hinton agar; format: cell-based
Description: as §1

[10] = tested on: Escherichia coli NIHJ JC-2; assay: MIC by agar dilution method, Mueller-Hinton agar; format: cell-based
Description: as §1

[11] = tested on: Pseudomonas aeruginosa NRRL B1000; assay: MIC by agar dilution method, Mueller-Hinton agar; format: cell-based
Description: as §1

[12] = tested on: Serratia marcescens SANK 73060; assay: MIC by agar dilution method, Mueller-Hinton agar; format: cell-based
Description: as §1

[13] = tested on: Pseudomonas aeruginosa NCTC 10490; assay: MIC by agar dilution method, Mueller-Hinton agar; format: cell-based
Description: as §1

[14] = tested on: Pseudomonas aeruginosa SANK 70579; assay: Growth inhibition test of derivatives; format: cell-based

Compound	Solubility in acetone [1]	Solubility in benzene [1]	Solubility in chloroform [1]	Solubility in ethyl acetate [1]	Solubility in methanol [1]	Solubility in water [1]	toxicity [2]	MIC [3] [µg/mL]	MIC [4] [µg/mL]	MIC [5] [µg/mL]	MIC [6] [µg/mL]	MIC [7] [µg/mL]	MIC [8] [µg/mL]	MIC [9] [µg/mL]	MIC [10] [µg/mL]	MIC [11] [µg/mL]	MIC [12] [µg/mL]	MIC [13] [µg/mL]	inhibition of growth [14]
CSCC[C@H](NC(=O)NC(Cc1cccc(O)c1)C(=O)O)C(=O)N[C@@H](C(=O)NC=C1CC(O)C(n2ccc(=O)[nH]c2=O)O1)C(C)N(C)C(=O)[C@@H](N)Cc1cccc(O)c1 (some centres unmarked) [Mureidomycin A, reference compound]	slightly soluble	insoluble	insoluble	insoluble	Soluble	Soluble													
CSCC[C@@H](NC(=O)N[C@H](Cc1cccc(O)c1)C(=O)O)C(=O)N[C@H](C(=O)N/C=C1/C[C@H](O)[C@@H](n2ccc(=O)[nH]c2=O)O1)[C@H](C)N(C)C(=O)[C@H]1Cc2cccc(O)c2CN1 [Mureidomycin E]	slightly soluble	insoluble	insoluble	insoluble	Soluble	Soluble	No toxicity was observed	> 200	< 0.4	25 (≈ 29.3 µM)	25 (≈ 29.3 µM)	25 (≈ 29.3 µM)	> 200	6.25 (≈ 7.33 µM)	> 200	25 (≈ 29.3 µM)	> 200	< 0.4	
CSCC[C@@H](NC(=O)N[C@@H](Cc1cccc(O)c1)C(=O)O)C(=O)N[C@@H](C(=O)N/C=C1/C[C@@H](O)[C@H](n2ccc(=O)[nH]c2=O)O1)[C@@H](C)N(C)C(=O)[C@H]1Cc2cc(O)ccc2CN1 [Mureidomycin F]	slightly soluble	insoluble	insoluble	insoluble	Soluble	Soluble	No toxicity was observed	> 200	1.56 (≈ 1.83 µM)	50 (≈ 58.6 µM)	100 (≈ 117 µM)	3.13 (≈ 3.67 µM)	> 200	25 (≈ 29.3 µM)	> 200	3.13 (≈ 3.67 µM)	> 200	0.8 (≈ 0.938 µM)	
methylmureidomycin E						soluble													inhibit the growth
methylmureidomycin F						soluble													inhibit the growth
phenylmureidomycin E						soluble													inhibit the growth
phenylmureidomycin F						soluble													inhibit the growth

— patent US5041423A, “Antibiotics of the mureidomycin group, their preparation, and their therapeutic use” (Sankyo Company, Limited, priority 1987, dated 1991)
